Results: ChEMBL document CHEMBL5442175, “EUbOPEN Chemogenomics Library - PDSP Secondary Binding” (2024)
Structures can show the parent of a compound that is named as a salt. Blank lines part the entries; values can stand above or below the compound they belong to.

Columns and labels:
Translocator protein = Translocator protein (Homo sapiens, UniProt P30536); experiment: (§1) PDSP Secondary Binding target: TSPO - Compounds are tested at 10 uM concentration, plate are incubated at room temperature in the dark for 90 minutes. Reaction are stopped by vacuum filtration onto 0.3% polyethyleneimine soaked filter mats using Filtermate harvester. Scintillation cocktail is then melted onto microwave-dried filters on a hot plate and the radio activity is counted in Microbia counter.
[1] = target: Sigma non-opioid intracellular receptor 1 (Homo sapiens, UniProt Q99720); experiment: as §1, with “SIGMAR1” for “TSPO”
[2] = target: 5-hydroxytryptamine receptor 7 (Homo sapiens, UniProt P34969); experiment: as §1, with “HTR7” for “TSPO”
D(3) dopamine receptor = D(3) dopamine receptor (Homo sapiens, UniProt P35462); experiment: as §1, with “DRD3” for “TSPO”
[3] = target: Sigma intracellular receptor 2 (Homo sapiens, UniProt Q5BJF2); experiment: as §1, with “TMEM97” for “TSPO”
[4] = target: Sodium-dependent dopamine transporter (Homo sapiens, UniProt Q01959); experiment: as §1, with “SLC6A3” for “TSPO”
[5] = target: T1, Muscarinic acetylcholine receptor M5 (Homo sapiens, UniProt P08912); experiment: as §1, with “CHRM5” for “TSPO”
T1 sequence (P08912 whole entry): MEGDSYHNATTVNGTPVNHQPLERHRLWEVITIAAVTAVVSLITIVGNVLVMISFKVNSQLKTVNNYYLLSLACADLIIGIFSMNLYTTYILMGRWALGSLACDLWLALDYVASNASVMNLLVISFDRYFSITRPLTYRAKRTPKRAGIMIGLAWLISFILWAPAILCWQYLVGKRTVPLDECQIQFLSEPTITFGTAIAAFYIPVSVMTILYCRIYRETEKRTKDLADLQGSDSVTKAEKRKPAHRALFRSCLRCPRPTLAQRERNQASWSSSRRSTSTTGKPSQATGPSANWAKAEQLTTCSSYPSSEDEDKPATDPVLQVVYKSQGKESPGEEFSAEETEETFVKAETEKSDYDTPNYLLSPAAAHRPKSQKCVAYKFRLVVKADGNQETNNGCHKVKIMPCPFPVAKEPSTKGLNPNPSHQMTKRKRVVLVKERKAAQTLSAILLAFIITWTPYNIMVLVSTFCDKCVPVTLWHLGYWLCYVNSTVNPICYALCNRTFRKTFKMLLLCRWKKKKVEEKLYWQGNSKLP

[6] = target: 5-hydroxytryptamine receptor 2A (Homo sapiens, UniProt P28223); experiment: as §1, with “HTR2A” for “TSPO”
[7] = target: T2, Alpha-2A adrenergic receptor (Homo sapiens, UniProt P08913); experiment: as §1, with “ADRA2A” for “TSPO”
T2 sequence (P08913 whole entry): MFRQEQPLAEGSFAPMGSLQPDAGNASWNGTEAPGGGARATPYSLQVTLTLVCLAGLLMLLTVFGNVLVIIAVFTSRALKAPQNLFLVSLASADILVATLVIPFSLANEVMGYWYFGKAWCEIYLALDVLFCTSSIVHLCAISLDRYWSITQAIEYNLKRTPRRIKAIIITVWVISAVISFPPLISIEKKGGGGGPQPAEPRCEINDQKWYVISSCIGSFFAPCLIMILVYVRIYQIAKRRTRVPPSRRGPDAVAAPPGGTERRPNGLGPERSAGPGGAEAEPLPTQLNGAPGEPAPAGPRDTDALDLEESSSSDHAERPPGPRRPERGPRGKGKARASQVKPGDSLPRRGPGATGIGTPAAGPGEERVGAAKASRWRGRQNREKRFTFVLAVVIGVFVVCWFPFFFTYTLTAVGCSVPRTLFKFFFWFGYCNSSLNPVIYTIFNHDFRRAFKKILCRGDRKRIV

[8] = target: 5-hydroxytryptamine receptor 2B (Homo sapiens, UniProt P41595); experiment: as §1, with “HTR2B” for “TSPO”
[9] = target: Sodium-dependent noradrenaline transporter (Homo sapiens, UniProt P23975); experiment: as §1, with “SLC6A2” for “TSPO”
[10] = target: 5-hydroxytryptamine receptor 5A (Homo sapiens, UniProt P47898); experiment: as §1, with “HTR5A” for “TSPO”
D(4) dopamine receptor = target: T3, D(4) dopamine receptor (Homo sapiens, UniProt P21917); experiment: as §1, with “DRD4” for “TSPO”
T3 sequence (P21917 whole entry): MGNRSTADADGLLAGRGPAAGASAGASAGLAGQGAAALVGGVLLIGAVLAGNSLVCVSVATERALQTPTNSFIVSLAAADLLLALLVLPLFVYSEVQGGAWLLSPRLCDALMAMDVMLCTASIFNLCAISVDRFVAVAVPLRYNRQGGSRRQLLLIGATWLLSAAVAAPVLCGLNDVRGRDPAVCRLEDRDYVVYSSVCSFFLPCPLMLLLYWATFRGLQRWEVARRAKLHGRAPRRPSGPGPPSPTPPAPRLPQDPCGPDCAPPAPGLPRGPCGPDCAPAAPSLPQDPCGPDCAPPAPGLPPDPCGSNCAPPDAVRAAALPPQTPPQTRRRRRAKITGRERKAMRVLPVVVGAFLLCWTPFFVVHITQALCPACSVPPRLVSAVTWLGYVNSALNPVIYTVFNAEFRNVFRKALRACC

[11] = target: T4, Alpha-1B adrenergic receptor (Homo sapiens, UniProt P35368); experiment: as §1, with “ADRA1B” for “TSPO”
T4 sequence (P35368 whole entry): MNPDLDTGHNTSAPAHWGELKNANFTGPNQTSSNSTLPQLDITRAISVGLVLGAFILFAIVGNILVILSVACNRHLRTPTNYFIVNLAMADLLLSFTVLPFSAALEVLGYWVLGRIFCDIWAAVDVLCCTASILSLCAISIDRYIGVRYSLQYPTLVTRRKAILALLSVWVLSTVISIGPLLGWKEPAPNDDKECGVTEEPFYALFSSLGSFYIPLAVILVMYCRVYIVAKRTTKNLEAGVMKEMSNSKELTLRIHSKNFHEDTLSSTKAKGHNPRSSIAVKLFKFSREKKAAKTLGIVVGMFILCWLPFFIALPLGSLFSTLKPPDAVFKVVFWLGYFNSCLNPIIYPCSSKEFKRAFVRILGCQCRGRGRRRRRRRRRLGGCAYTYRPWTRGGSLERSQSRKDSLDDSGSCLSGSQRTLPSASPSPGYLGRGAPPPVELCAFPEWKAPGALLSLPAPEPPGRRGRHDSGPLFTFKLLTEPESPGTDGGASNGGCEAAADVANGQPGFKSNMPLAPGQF

[12] = target: 5-hydroxytryptamine receptor 1D (Homo sapiens, UniProt P28221); experiment: as §1, with “HTR1D” for “TSPO”
Mu-type opioid receptor = Mu-type opioid receptor (Homo sapiens, UniProt P35372); experiment: as §1, with “OPRM1” for “TSPO”
Mu-type opioid receptor, sequence (P35372 whole entry): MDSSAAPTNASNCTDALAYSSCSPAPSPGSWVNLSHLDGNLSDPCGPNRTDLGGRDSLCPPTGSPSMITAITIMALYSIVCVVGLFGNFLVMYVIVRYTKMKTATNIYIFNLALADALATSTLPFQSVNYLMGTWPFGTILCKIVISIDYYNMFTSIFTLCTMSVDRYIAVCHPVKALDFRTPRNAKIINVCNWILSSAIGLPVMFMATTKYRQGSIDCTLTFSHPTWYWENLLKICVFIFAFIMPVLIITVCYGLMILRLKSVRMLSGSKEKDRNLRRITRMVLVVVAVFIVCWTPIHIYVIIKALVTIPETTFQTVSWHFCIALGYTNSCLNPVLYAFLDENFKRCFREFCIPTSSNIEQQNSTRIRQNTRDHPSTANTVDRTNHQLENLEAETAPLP

Translocator protein, sequence (P30536 whole entry): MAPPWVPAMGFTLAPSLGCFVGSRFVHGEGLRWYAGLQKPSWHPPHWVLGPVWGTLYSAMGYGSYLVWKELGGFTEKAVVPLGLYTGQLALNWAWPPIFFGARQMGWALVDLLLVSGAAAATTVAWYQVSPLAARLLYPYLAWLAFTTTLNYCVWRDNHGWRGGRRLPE
Sigma intracellular receptor 2, sequence (Q5BJF2 whole entry): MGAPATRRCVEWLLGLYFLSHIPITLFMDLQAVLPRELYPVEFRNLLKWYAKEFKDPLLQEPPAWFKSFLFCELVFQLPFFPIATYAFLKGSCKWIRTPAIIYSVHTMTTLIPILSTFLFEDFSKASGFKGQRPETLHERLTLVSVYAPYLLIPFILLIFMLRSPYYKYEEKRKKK
Sodium-dependent dopamine transporter, sequence (Q01959 whole entry): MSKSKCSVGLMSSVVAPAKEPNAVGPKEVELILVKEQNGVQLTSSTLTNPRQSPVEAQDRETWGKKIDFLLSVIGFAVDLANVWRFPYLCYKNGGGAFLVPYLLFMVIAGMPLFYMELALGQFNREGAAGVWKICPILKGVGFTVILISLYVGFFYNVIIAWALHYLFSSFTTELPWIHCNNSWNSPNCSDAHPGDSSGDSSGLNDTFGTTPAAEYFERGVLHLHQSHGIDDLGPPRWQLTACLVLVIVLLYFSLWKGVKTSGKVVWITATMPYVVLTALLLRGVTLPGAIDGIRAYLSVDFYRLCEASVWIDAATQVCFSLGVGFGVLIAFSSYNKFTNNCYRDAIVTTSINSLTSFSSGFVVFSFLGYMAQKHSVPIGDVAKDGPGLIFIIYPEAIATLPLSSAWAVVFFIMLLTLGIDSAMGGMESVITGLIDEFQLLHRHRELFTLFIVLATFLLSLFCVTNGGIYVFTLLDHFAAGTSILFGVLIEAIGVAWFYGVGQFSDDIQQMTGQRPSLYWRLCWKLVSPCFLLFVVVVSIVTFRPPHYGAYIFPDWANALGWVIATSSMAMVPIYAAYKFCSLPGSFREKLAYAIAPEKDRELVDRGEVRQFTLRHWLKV
5-hydroxytryptamine receptor 2A, sequence (P28223 whole entry): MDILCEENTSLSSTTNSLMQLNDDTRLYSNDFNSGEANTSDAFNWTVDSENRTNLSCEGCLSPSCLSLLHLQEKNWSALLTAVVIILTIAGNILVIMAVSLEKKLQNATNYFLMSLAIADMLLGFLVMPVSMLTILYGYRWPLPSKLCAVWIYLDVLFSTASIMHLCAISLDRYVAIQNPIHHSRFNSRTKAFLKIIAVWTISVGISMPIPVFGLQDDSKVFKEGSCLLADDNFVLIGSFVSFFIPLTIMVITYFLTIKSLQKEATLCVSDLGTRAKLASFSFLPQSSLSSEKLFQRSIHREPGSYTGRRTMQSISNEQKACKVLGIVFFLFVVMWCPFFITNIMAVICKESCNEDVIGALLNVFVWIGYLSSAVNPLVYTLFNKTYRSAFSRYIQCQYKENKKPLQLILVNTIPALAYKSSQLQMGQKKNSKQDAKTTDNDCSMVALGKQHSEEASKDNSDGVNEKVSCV
5-hydroxytryptamine receptor 2B, sequence (P41595 whole entry): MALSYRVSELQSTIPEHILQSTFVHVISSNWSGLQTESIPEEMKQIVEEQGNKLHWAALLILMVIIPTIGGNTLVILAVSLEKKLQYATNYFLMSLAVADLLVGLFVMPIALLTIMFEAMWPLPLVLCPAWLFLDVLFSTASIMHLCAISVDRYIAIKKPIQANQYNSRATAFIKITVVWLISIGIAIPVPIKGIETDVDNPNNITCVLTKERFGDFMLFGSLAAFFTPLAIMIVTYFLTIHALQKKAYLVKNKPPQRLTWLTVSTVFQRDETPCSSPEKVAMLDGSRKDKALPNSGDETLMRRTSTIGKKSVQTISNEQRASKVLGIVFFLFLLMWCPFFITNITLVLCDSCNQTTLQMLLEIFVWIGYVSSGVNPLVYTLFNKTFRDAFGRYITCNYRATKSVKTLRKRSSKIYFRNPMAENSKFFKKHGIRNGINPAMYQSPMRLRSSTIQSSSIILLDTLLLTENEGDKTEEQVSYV
Sigma non-opioid intracellular receptor 1, sequence (Q99720 whole entry): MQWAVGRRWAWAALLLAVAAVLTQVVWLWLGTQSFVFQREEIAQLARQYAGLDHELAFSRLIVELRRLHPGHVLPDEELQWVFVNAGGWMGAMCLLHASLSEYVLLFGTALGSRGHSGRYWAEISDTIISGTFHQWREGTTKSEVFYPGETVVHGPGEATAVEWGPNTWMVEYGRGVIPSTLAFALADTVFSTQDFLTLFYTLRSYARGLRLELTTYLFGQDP
D(3) dopamine receptor, sequence (P35462 whole entry): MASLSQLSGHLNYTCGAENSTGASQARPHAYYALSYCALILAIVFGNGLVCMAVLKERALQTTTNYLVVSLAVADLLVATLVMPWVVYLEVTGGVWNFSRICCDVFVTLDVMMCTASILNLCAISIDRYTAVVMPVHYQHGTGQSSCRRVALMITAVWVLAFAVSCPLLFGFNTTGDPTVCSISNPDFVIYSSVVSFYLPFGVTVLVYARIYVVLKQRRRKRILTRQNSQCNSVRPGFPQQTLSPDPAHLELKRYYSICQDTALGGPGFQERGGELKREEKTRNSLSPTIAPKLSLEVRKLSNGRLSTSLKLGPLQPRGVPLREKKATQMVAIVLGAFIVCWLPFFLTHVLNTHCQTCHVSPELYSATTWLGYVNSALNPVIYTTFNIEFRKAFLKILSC
5-hydroxytryptamine receptor 7, sequence (P34969 whole entry): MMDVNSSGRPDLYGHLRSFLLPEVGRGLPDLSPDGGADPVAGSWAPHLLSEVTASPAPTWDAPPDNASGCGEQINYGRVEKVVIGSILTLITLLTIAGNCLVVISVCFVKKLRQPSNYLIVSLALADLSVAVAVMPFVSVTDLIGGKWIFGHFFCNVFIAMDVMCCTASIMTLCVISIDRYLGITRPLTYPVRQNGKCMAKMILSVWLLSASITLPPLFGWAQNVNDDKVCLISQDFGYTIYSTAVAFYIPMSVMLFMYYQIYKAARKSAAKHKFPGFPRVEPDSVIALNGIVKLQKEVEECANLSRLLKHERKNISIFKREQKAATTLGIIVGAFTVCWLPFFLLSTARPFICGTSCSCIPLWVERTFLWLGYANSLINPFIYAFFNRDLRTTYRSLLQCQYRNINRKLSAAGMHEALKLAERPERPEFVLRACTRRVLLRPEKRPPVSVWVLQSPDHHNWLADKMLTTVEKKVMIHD
5-hydroxytryptamine receptor 5A, sequence (P47898 whole entry): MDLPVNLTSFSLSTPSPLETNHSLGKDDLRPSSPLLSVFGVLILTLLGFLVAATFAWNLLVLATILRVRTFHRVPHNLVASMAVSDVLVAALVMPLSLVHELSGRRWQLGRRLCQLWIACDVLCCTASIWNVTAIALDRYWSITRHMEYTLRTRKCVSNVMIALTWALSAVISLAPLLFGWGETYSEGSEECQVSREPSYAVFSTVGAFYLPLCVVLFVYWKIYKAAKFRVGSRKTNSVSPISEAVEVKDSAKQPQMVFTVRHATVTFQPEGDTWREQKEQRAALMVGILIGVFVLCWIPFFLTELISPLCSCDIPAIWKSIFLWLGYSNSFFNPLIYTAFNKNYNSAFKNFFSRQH
Sodium-dependent noradrenaline transporter, sequence (P23975 whole entry): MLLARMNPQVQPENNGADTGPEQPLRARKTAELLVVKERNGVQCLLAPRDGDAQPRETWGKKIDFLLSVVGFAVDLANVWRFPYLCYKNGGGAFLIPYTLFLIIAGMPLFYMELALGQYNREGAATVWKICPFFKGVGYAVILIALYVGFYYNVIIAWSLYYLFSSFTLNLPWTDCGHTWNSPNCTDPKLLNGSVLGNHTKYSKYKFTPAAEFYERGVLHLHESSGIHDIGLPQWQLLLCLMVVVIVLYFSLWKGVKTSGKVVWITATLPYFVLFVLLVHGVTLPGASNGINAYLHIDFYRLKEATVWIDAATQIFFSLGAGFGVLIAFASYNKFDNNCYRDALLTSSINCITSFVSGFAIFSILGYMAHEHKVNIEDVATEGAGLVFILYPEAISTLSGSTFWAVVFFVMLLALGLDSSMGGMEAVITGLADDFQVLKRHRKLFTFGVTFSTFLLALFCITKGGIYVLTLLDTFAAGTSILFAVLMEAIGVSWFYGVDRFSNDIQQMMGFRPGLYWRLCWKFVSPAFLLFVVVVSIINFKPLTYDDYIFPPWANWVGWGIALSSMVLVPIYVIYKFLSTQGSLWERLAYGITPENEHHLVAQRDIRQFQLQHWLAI
5-hydroxytryptamine receptor 1D, sequence (P28221 whole entry): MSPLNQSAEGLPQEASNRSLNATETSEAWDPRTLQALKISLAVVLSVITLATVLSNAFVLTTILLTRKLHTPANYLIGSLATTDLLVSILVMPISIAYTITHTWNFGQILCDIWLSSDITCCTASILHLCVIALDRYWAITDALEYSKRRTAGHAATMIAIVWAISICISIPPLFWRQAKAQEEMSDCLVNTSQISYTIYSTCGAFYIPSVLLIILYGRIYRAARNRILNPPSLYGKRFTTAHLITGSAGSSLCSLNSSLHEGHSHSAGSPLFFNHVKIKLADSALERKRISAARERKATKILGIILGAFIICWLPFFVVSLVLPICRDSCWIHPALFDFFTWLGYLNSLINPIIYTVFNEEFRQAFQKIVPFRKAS

Ki (Translocator protein): > 10000 nM
Structure (SMILES): NC(=O)[C@@H]1CCCN1C(=O)[C@H](Cc1cnc[nH]1)NC(=O)[C@@H]1CCC(=O)N1 [PROTIRELIN]

Ki [1]: 8850 nM
Structure (SMILES): CCC(=O)NCC[C@@H]1CCc2ccc3c(c21)CCO3 [RAMELTEON]

Ki [2]: 333 nM
Ki [1]: 2780 nM
Structure (SMILES): COC(=O)[C@H]1[C@H]2C[C@H]3c4[nH]c5ccccc5c4CCN3C[C@H]2CC[C@@H]1O [RAUWOLSCINE HYDROCHLORIDE]

Ki (D(3) dopamine receptor): 1960 nM
Structure (SMILES): COc1ccc(/C=C/CCCCOc2ccc(C(=O)c3cccc(C(=O)O)c3)cc2CCC(=O)O)cc1

Ki [3]: 1870 nM
Ki [1]: 830 nM
Structure (SMILES): CO[C@@H]1COCC[C@@H]1N[C@@H]1CC[C@@](C(=O)N2CCc3ncc(C(F)(F)F)cc3C2)(C(C)C)C1 [MK-0812]

Ki [1]: 474 nM
Ki (Translocator protein): 969 nM
Structure (SMILES): COC1CCN(c2cccc(-c3cc(NC(C)=O)nc(-n4nc(C)cc4C)n3)n2)CC1

Ki [4]: 3360 nM
Structure (SMILES): CCCn1c(=O)c2[nH]c(C34CC5CC(CC3C5)C4)nc2n(CCC)c1=O [ROLOFYLLINE]

Ki [4]: 519 nM
Ki [3]: 1300 nM
Structure (SMILES): CCCSc1nc(N[C@@H]2C[C@H]2c2ccc(F)c(F)c2)c2nnn([C@@H]3C[C@H](OCCO)[C@@H](O)[C@H]3O)c2n1 [TICAGRELOR]

Ki (D(3) dopamine receptor): 3570 nM
Structure (SMILES): O=C1O[C@]2(CC[C@H](C(=O)Nc3ccn(-c4ccccc4F)n3)CC2)c2cnccc21 [MK-0557]

Ki [7]: > 10000 nM
Structure (SMILES): Cc1c(F)cccc1NC(=O)Nc1ccc(Cl)c(S(=O)(=O)[C@H]2CCCNC2)c1O [DANIRIXIN]

Ki [1]: 908 nM
Ki [8]: 656 nM
Structure (SMILES): Cc1c(C(=O)NC2CCCCC2)sc2nc3ccc(N)cc3n12

Ki [3]: 1650 nM
Ki [1]: 248 nM
Structure (SMILES): CC(C)NCC(O)COc1ccc(CCOCC2CC2)cc1 (stereo not given) [BETAXOLOL HYDROCHLORIDE]

Ki [4]: 4310 nM
Ki [1]: 983 nM
Structure (SMILES): FC(F)(F)c1c(N2CCC(c3ccccc3)CC2)ccn2c(CC3CC3)nnc12

Ki (D(3) dopamine receptor): 591 nM
Structure (SMILES): O=C(O)CC1CCC2(CC1)CCN(c1cc(OC(F)(F)F)ccc1Cl)CC2

Ki [10]: 800 nM
Ki [1]: 2970 nM
Ki (Mu-type opioid receptor): 1790 nM
Ki (Translocator protein): > 10000 nM
Structure (SMILES): COc1cc2nc(N3CCN(C(=O)c4ccco4)CC3)nc(N)c2cc1OC [PRAZOSIN HYDROCHLORIDE]

More lines, now with the values behind:

Structure (SMILES): CNC[C@H](O)c1cccc(O)c1 [PHENYLEPHRINE]
Ki [2]: 1110 nM

Structure (SMILES): CCCCCCCCCCCCC/C=C/[C@@H](O)[C@@H](N)COP(=O)(O)O
Ki [3]: 672 nM
Ki [1]: 5980 nM
Ki (Translocator protein): 3120 nM

Structure (SMILES): N#Cc1c(O)nc(SCc2cccc(F)c2F)nc1C1CC1
Ki [5]: 6560 nM

Structure (SMILES): CC(C)Oc1ccccc1C(=O)Nc1ccccc1C(=O)Nc1cccc(S(=O)(=O)C(F)(F)F)c1
Ki [6]: 983 nM
Ki (Translocator protein): 111 nM

Structure (SMILES): COc1ccc(CNC(=O)c2cc(-c3cncc(Cl)c3)cnc2-c2ccccn2)nc1OC [MK-1064]
Ki [6]: 4590 nM

Structure (SMILES): CC1=C2C[C@H]3[C@@H](CC=C4C[C@@H](O)CC[C@@]43C)[C@@H]2CC[C@]12O[C@@H]1C[C@H](C)CN[C@H]1[C@H]2C [CYCLOPAMINE]
Ki [4]: 3420 nM
Ki [3]: 599 nM

Structure (SMILES): COc1ccc(Br)cc1S(=O)(=O)NC(=O)/C=C/c1ccccc1Cc1ccc2ccccc2c1
Ki (D(3) dopamine receptor): 582 nM

Structure (SMILES): CC1(C)SSC(C)(C)[C@@H](NC(=O)[C@@H](N)Cc2ccc(O)cc2)C(=O)NCC(=O)N[C@@H](Cc2ccccc2)C(=O)N[C@H]1C(=O)O
Ki (Translocator protein): 1630 nM

Structure (SMILES): COc1ccccc1CN[C@H]1C2CCN(CC2)[C@H]1C(c1ccccc1)c1ccccc1 [CP-96345]
Ki [5]: 4940 nM
Ki [3]: 906 nM

Structure (SMILES): CCCCC#Cc1nc(NC)c2ncn([C@@H]3O[C@H](CO)[C@@H](O)[C@H]3O)c2n1
Ki [4]: > 10000 nM
Ki [6]: 7870 nM

Structure (SMILES): CCc1cc(C(C)=O)c(O)cc1OCCCCCC(C)(C)c1nn[nH]n1 [LY-255283]
Ki [1]: 5780 nM
Ki [8]: 2680 nM

Structure (SMILES): Cc1cc(C)c(N)c(C#Cc2cccc(F)c2)n1 [RASEGLURANT]
Ki [9]: 345 nM

Structure (SMILES): CN1C(=O)[C@@H](NC(=O)c2cc3ccccc3[nH]2)N=C(c2ccccc2)c2ccccc21 [DEVAZEPIDE]
Ki (Translocator protein): 3330 nM

Structure (SMILES): CC(C)NCC(O)COc1cccc2[nH]ccc12 (stereo not given) [PINDOLOL]
Ki [10]: 7050 nM
Ki [3]: 3320 nM
Ki (D(4) dopamine receptor): 1660 nM

Structure (SMILES): CCCCN(CC)c1nc(C)nc2c1c(C)cn2-c1c(C)cc(C)cc1C
Ki [3]: 2120 nM
Ki (Translocator protein): 1880 nM

Structure (SMILES): Nc1nc(NCCc2ccc(O)cc2)nc2nc(-c3ccco3)nn12 [ZM-241385]
Ki [3]: 1070 nM

Structure (SMILES): COc1cc2c(CCNC(C)=O)c[nH]c2cc1Cl
Ki [8]: 844 nM
Ki [11]: > 10000 nM

Structure (SMILES): Cc1nc(-c2ccc(C(F)(F)F)cc2)sc1COc1ccc([C@H](CC(=O)O)c2ccon2)cc1
Ki [5]: 6850 nM
Ki [4]: 4490 nM
Ki [11]: > 10000 nM

Structure (SMILES): O=C(Cc1ccccc1)Nc1nc2ccc(Cl)cc2c2nc(-c3ccco3)nn12
Ki [12]: > 10000 nM

Structure (SMILES): Cc1csc(NC(=O)c2cc(F)cc(Oc3cncnc3)c2)n1
Ki [5]: > 10000 nM
Ki [4]: 2990 nM
Ki (D(3) dopamine receptor): 2140 nM
